Experimental data published in US20240150423A1, “GLP-1 ANALOGUE-MODIFIED DIMERS WITH DIFFERENT CONFIGURATIONS, PREPARATION METHOD THEREOF, AND APPLICATION THEREOF IN TREATMENT OF TYPE II DIABETES” (Nanjing Finepeptide Biopharmaceutical Co.,Ltd, priority 2019, published 2024).
Positions of bridges follow the written chain, without caps; N, C: chain ends. Non-standard residues stand in square brackets, D forms with d. Chains are numbered I, II in the order given. No end group written: not given here. bAib = not defined here; βAib = beta-Aib residue; Aib = CC(C)(N)C(=O)O; βAla = NCCC(=O)O

system: Normal Kunming (KM) mice; test: multiple OGTT (mOGTT): hypoglycemic duration after a single administration; type: in vivo; details: monomeric peptides, single injection at the same dose (1.126 nmol), subcutaneous
In short: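 Normal Kunming mice given a single dose, then oral glucose challenges; tail-blood glucose read by meter at 0, 10, 20, 40, 60 and 120 min. Duration scored as hypoglycemic period until group mean glucose exceeded the NaCl control twice.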

Substance | Hypoglycemic (day) | Hypoglycemic
His-Ala-Glu-Gly-Thr-Phe-Thr-Ser-Asp-Val-Ser-Ser-Tyr-Leu-Glu-Gly-Gln-Ala-Ala-Lys[N-ϵ-(N-α-Palmitoyl-γ-glutamyl)]-Glu-Phe-Ile-Ala-Trp-Leu-Val-Arg-Gly-Arg-Gly-Cys-OH (HAEGTFTSDVSSYLEGQAAXEFIAWLVRGRGC; palmitoyl-γ-glutamyl on Lys; C-terminal acid; Sequence is synthesized; (20)..(20) Xaa is 26Lys[N-e-(N-a-Palmitoyl-g-glutamyl)]; (32)..(32) C-terminal) [G1] | No hypoglycemic | –
His-βAib-Glu-Gly-Thr-Phe-Thr-Ser-Asp-Val-Ser-Cys-Tyr-Leu-Glu-Gly-Gln-Ala-Ala-Lys-Glu-Phe-Ile-Ala-Trp-Leu-Val-Arg-βAib-Arg-NH2 (H[βAib]EGTFTSDVSCYLEGQAAKEFIAWLVR[βAib]R-NH2; also: disulfide-linked homodimer via Cys12) [G7 series 54] | – | 2 days
His-Ala-Glu-Gly-Thr-Phe-Thr-Ser-Asp-Val-Cys-Ser-Tyr-Leu-Glu-Gly-Gln-Ala-Ala-Lys[N-ϵ-(N-α-Palmitoyl)]-Glu-Phe-Ile-Ala-Trp-Leu-Val-Arg-Gly-Arg-Gly-NH2 (HAEGTFTSDVCSYLEGQAAXEFIAWLVRGRG; palmitoyl on Lys; C-terminal amide; Sequence is synthesized; (20)..(20) Xaa is 26Lys[N-e-(N-a-palmitoyl-L-g-glutamyl)]; (31)..(31) N-terminal) [G4 series 25] | – | 5 days
His-aAib-Glu-Gly-Thr-Phe-Thr-Ser-Asp-Val-Ser-Cys-Tyr-Leu-Glu-Gly-Gln-Ala-Ala-Lys-Glu-Phe-Ile-Ala-Trp-Leu-Val-Arg-aAib-Arg-OH (H[Aib]EGTFTSDVSCYLEGQAAKEFIAWLVR[Aib]R-OH; also: disulfide-linked homodimer via Cys) [G7 series 52] | – | 1 days
His-Ala-Glu-Gly-Thr-Phe-Thr-Ser-Asp-Val-Ser-Cys-Tyr-Leu-Glu-Gly-Gln-Ala-Ala-Lys[N-ϵ-(N-α-Palmitoyl)]-Glu-Phe-Ile-Ala-Trp-Leu-Val-Arg-Gly-Arg-Gly-OH (HAEGTFTSDVSCYLEGQAAXEFIAWLVRGRG; not fully specified; palmitoyl on Lys side chain; C-terminal acid; Sequence is synthesized; (20)..(20) Xaa is 26Lys[N-e-(N-a-palmitoyl-L-g-glutamyl)]; (31)..(31) C-terminal) [G4 series 34] | – | 4 days
His-aAib-Glu-Gly-Thr-Phe-Thr-Ser-Asp-Val-Ser-Cys-Tyr-Leu-Glu-Gly-Gln-Ala-Ala-Lys[N-ϵ-(N-α-oleoyl)]-Glu-Phe-Ile-Ala-Trp-Leu-Val-Arg-Gly-Arg-Gly-NH2 (HXEGTFTSDVSCYLEGQAAXEFIAWLVRGRG; not fully specified; Aib; oleoyl on Lys side chain; C-terminal amide; Sequence is synthesized; (2)..(2) Xaa is aAib; (20)..(20) Xaa is 26Lys[N-e-(N-a-oleoyl-L-g-glutamyl)]; (31)..(31) N-terminal) [G4 series 36] | – | 8 days
His-βAla-Glu-Gly-Thr-Phe-Thr-Cys-Asp-Val-Ser-Ser-Tyr-Leu-Glu-Gly-Gln-Ala-Ala-Lys-Glu-Phe-Ile-Ala-Trp-Leu-Val-Arg-βAla-Arg-NH2 (H[βAla]EGTFTCDVSSYLEGQAAKEFIAWLVR[βAla]R-NH2; not fully specified; printed as His-βAla-Glu-Gly-Thr-Phe-Thr-Cys-Asp-Val-Ser-Ser-Tyr-Leu-Glu-Gly-Gln-Ala-Ala-Lys-Glu-Phe-Ile-Ala-Trp-Leu-Val-Arg-βAla-Arg-NH2) [G8 series 69] | – | 2 days
His-Ala-Glu-Gly-Thr-Phe-Thr-Ser-Asp-Val-Ser-Cys-Tyr-Leu-Glu-Gly-Gln-Ala-Ala-Lys[N-ϵ-(N-α-Palmitoyl-L-γ-glutamyl)]-Glu-Phe-Ile-Ala-Trp-Leu-Val-Lys[N-ϵ-(N-α-Palmitoyl-L-γ-glutamyl)]-Gly-Arg-Gly-OH (HAEGTFTSDVSCYLEGQAAXEFIAWLVXGRG; two palmitoyl-gamma-Glu on Lys; C-terminal acid; Sequence is synthesized; (20)..(20) Xaa is 26Lys[N-e-(N-a-palmitoyl-L-g-glutamyl)]; (28)..(28) Xaa is 26Lys[N-e-(N-a-palmitoyl-L-g-glutamyl)]; (31)..(31) C-terminal) [G5 series 40] | – | 1 days
His-aAib-Glu-Gly-Thr-Phe-Thr-Ser-Asp-Val-Cys-Ser-Tyr-Leu-Glu-Gly-Gln-Ala-Ala-Lys[N-ϵ-(N-α-oleoyl-L-γ-glutamyl)]-Glu-Phe-Ile-Ala-Trp-Leu-Val-Arg-Gly-Arg-Gly-OH (HXEGTFTSDVCSYLEGQAAXEFIAWLVRGRG; αAib; oleoyl-γ-glutamyl on Lys; C-terminal acid; Sequence is synthesized; (2)..(2) Xaa is aAib; (20)..(20) Xaa is 26Lys[N-e-(N-a-oleoyl-L-g-glutamyl)]; (31)..(31) C-terminal) [G2 series 14] | – | 4 days
His-βAib-Glu-Gly-Thr-Phe-Thr-Ser-Asp-Val-Cys-Ser-Tyr-Leu-Glu-Gly-Gln-Ala-Ala-Lys-Glu-Phe-Ile-Ala-Trp-Leu-Val-Lys-βAib-Arg-NH2 (H[βAib]EGTFTSDVCSYLEGQAAKEFIAWLVK[βAib]R-NH2; also: disulfide-linked homodimer via Cys) [G2 series 17] | – | 3 days
His-βAib-Glu-Gly-Thr-Phe-Thr-Ser-Asp-Val-Cys-Ser-Tyr-Leu-Glu-Gly-Gln-Ala-Ala-Lys-Glu-Phe-Ile-Ala-Trp-Leu-Val-Arg-βAib-Arg-NH2 (H[βAib]EGTFTSDVCSYLEGQAAKEFIAWLVR[βAib]R-NH2; also: disulfide-linked homodimer via Cys) [G2 series 16] | – | 3 days
His-aAib-Glu-Gly-Thr-Phe-Thr-Ser-Asp-Val-Ser-Cys-Tyr-Leu-Glu-Gly-Gln-Ala-Ala-Lys[N-ϵ-(N-α-Palmitoyl-L-γ-glutamyl)]-Glu-Phe-Ile-Ala-Trp-Leu-Val-Arg-Gly-Arg-Gly-OH (HXEGTFTSDVSCYLEGQAAXEFIAWLVRGRG; Aib; palmitoyl-gamma-Glu on Lys; C-terminal acid; Sequence is synthesized; (2)..(2) Xaa is aAib; (20)..(20) Xaa 26Lys[N-e-(N-a-palmitoyl-L-g-glutamyl)]; (31)..(31) C-terminal) [G6 series 45] | – | 4 days

same assay, conditions: single injection at the same dose (1.126 nmol), subcutaneous

Substance | Hypoglycemic duration
2G4 series 34: disulfide-linked homodimer of monomer SEQ ID NO: 34 (HAEGTFTSDVSCYLEGQAAXEFIAWLVRGRG; not fully specified; disulfide-linked homodimer; Sequence is synthesized; (20)..(20) Xaa is 26Lys[N-e-(N-a-palmitoyl-L-g-glutamyl)]; (31)..(31) C-terminal) | 13 days
2G4 series 27: disulfide-linked homodimer of monomer SEQ ID NO: 27 (HAEGTFTSDVCSYLEGQAAXEFIAWLVRGRG; not fully specified; disulfide-linked homodimer; Sequence is synthesized; (20)..(20) Xaa is 26Lys[N-e-(N-a-oleoyl-L-g-glutamyl)]; (31)..(31) N-terminal) | 15 days
2G8 series 57: disulfide-linked homodimer of monomer SEQ ID NO: 57 (HAEGTFTCDVSSYLEGQAAXEFIAWLVRGRG; disulfide-linked homodimer; Sequence is synthesized; (20)..(20) Xaa is 26Lys[N-e-(N-a-palmitoyl-L-g-glutamyl)]; (31)..(31) N-terminal) | 5 days
2G8 series 66: disulfide-linked homodimer of monomer SEQ ID NO: 66 (HXEGTFTCDVSSYLEGQAAXEFIAWLVRGRG; disulfide-linked homodimer; Sequence is synthesized; (2)..(2) Xaa is bAib; (20)..(20) Xaa is 26Lys[N-e-(N-a-oleoyl-L-g-glutamyl)]; (31)..(31) N-terminal) | 8 days
2G4 series 32: disulfide-linked homodimer of monomer SEQ ID NO: 32 (HAEGTFTSDVSCYLEGQAAXEFIAWLVRGRG; not fully specified; disulfide-linked homodimer; Sequence is synthesized; (20)..(20) Xaa is 26Lys[N-e-(N-a-oleoyl-L-g-glutamyl)]; (31)..(31) C-terminal) | 13 days
2G5 series 41: disulfide-linked homodimer of monomer SEQ ID NO: 41 (HAEGTFTSDVSCYLEGQAAXEFIAWLVXGRG; disulfide-linked homodimer; Sequence is synthesized; (20)..(20) Xaa is 26Lys[N-e-(N-a-palmitoyl-L-g-glutamyl)]; (28)..(28) Xaa is 26Lys[N-e-(N-a-palmitoyl-L-g-glutamyl)]; (31)..(31) N-terminal) | 5 days
2G2 series 16: disulfide-linked homodimer of monomer SEQ ID NO: 16 (chain 1 H[bAib]EGTFTSDVCSYLEGQAAKEFIAWLVR[bAib]R; chain 2 H[bAib]EGTFTSDVCSYLEGQAAKEFIAWLVR[bAib]R; disulfide I:11-II:11 (inferred); not fully specified; reading uncertain) | 4 days
2G4 series 31: disulfide-linked homodimer of monomer SEQ ID NO: 31 (HXEGTFTSDVCSYLEGQAAXEFIAWLVRGRG; not fully specified; disulfide-linked homodimer; Sequence is synthesized; (2)..(2) Xaa is bAla; (20)..(20) Xaa is 26Lys[N-e-(N-a-oleoyl-L-g-glutamyl)]; (31)..(31) N-terminal) | 15 days
